Measured values as given in patent US20240342148A1, “METHODS OF TREATING FACIOSCAPULOHUMERAL MUSCULAR DYSTROPHY WITH LOSMAPIMOD” (Fulcrum Therapeutics, Inc., priority 2021, published 2024).

Experiments:
subjects with FSHD [1] = assay: Reachable workspace (RWS) relative surface area, RCT; type: in vivo, human
Experimental: Continuous secondary and exploratory efficacy endpoints with 2 or more postbaseline follow-ups were analyzed using a mixed-effects model for repeated measures (MMRM), with change from baseline as the dependent variable, and treatment group, visit, treatment group-by-visit interaction, and FSHD repeat number category as fixed effects, and baseline value as a covariate. An unstructured covariance matrix was used to model the correlations among repeated measurements within each subject. The Kenward-Roger approximation was used to estimate denominator degrees of freedom. The RWS RSA score was also analyzed using a linear mixed-effects model, with treatment group as a fixed effect, and intercept, time and treatment group-by-time interaction as random effects, and with adjustment for FSHD repeat number category and region (USA, Canada, and EU). An unstructured covariance matrix was used. The RWS was performed at all visits, except for Week 16. It uses a single, 3D sensor-based system (Microsoft […]) that can unobtrusively detect subjects' RWS and reflects individual global upper extremity (UE) function, including shoulder and proximal arm. RWS has high reliability, repeatability, face validity, feasibility, sensitivity to change, and promise as a clinical outcome assessment (COA) for FSHD and other neuromuscular disorders. During the evaluation, patients were seated in front of the Microsoft […] sensor and underwent a standardized UE movement protocol while looking at a TV monitor. The evaluation was performed with and without 500 g weights two times per visit. All sites were provided and trained with the same standardized software and hardware by the sponsor. A central reader was responsible for training, quality control, data analysis, and standardization of the RWS across all sites in the study.

subjects with FSHD [2] = assay: Reachable workspace, Open Label Study, exploratory annualized analysis; type: in vivo, human; details: with and without weights
Source text: In the Open Label Study, reachable workspace (RWS) with and without weights has also been evaluated. FIG. 27 provides exploratory annualized percentage changes of RWS from baseline of patients participating in the study.

[3] = test system: DUX4-regulated gene transcripts; assay: DUX4-regulated transcript analysis by RT-qPCR in muscle biopsies (primary endpoint); type: in vivo, human; details: log 2 scale
Experimental: All efficacy analyses were performed using the full analysis set (FAS), according to the randomized treatment group. The primary endpoint, change from baseline in DUX4 activity (DUX4 Score 1), was analyzed using the analysis of covariance approach, with treatment group and FSHD repeat number category (1 to 3 repeats versus 4 to 9 repeats) as fixed effects, and baseline DUX4 Score 1 as a covariate. Multiplicity adjustment was not performed, as the primary endpoint was not met.
Muscle needle biopsies were performed using the Bergstrom needle or fine needle at D1 and Wk16, or Wk36 if the muscle biopsy could not be performed at Wk16. The choice of the muscle(s) to be biopsied was determined by the investigator, informed by MRI taken during screening. […] The bilateral vastus lateralis, vastus medialis, lateral gastrocnemius, medial gastrocnemius, and tibialis anterior were evaluated for eligibility by MRI using a central reader. […]
The muscle tissue collected at each muscle needle biopsy (D1 and Wk16 or Wk36) was analyzed for DUX4 activity using a molecular panel of DUX4-regulated gene transcripts (CCNA1, KHDC1L, MBD312, PRAMEF6, SLC34A2 and ZSCAN4, with TBP, HMBS, CDKN1B as reference genes). Raw Cycle Thresholds (Cts) from quantitative polymerase chain reaction (qPCR) were determined for DUX4 regulated genes using a validated assay (Fluidigm). […]

p38a/b MAPK pathway = assay: Target engagement in blood: pHSP27/HSP27total ELISA after ex vivo sorbitol stimulation; parameters: species or system human
Experimental: Blood samples for target engagement were collected at D1 and Wk16 or Wk36, at the same pre- and post-dose time points as PK samples.
Blood samples for measurement of total heat shock protein 27 (HSP27total) and phosphorylated heat shock protein 27 (pHSP27) were collected into EDTA-containing tubes. Two mL of whole blood was stimulated ex vivo with sorbitol for 30 minutes at room temperature to induce phosphorylation of HSP27 as a measure of p38a/b MAPK activity. Sorbitol stimulation activates the p38a/b MAPK pathway in blood and allows for more robust detection of inhibition of the p38a/b MAPK pathway by losmapimod. Subsequently, samples were lysed on ice and lysates frozen at −80° C. pHSP27 and HSP27total were measured by a validated enzyme-linked immunosorbent assay method (Cambridge Biomedical Inc., Boston, MA, USA and Immunologix, Tampa, FL, USA). Inter- and intra-assay precision for both pHSP27 and HSP27total met the preapproved criteria of <25% CV having been run in 5 replicates with the LLOQ established for pHSP27 at 20.7 ng/ml and ULOQ at 470.1 ng/ml and the LLOQ established for HSP27total at 105.2 ng/ml and ULOQ at 2168.1 ng/mL.

[4] = Plasma losmapimod concentrations (PK), Phase 2b RCT; type: in vivo, human; details: 15 mg orally BID
Experimental: Blood samples for PK assessment (plasma losmapimod concentrations) were collected at D1, Wk4, Wk16, and Wk36 at the following time points: immediately pre-dose and 4 hours (±30 minutes) after administration of the study dose (approximate Cmax). PK samples were also taken, when feasible, after dosing during the Wk12, Wk24, and Wk48 visits, preferably ≥1 hour after dosing.
Plasma and muscle losmapimod concentrations were measured by 2 validated bioanalytical high-performance liquid chromatography methods by PPD, USA (PPD 2019).

For `Cc1c(F)cc(C(=O)NC2CC2)cc1-c1ccc(C(=O)NCC(C)(C)C)cn1` [losmapimod, 6-(5-cyclopropylcarbamoyl-3-fluoro-2-methyl-phenyl)-N-(2,2-dimethylpropyl-)-nicotinamide], the “RSA change, dominant arm” value (subjects with FSHD [1]; 0-1.25 scale) was 0.019, the “RSA change, non-dominant arm” value (subjects with FSHD [1]; 0-1.25 scale) was 0.021 and the “RSA difference vs placebo, non-dominant arm” value (subjects with FSHD [1]; 0-1.25 scale, 95% CI 0.0007, 0.09, p<0.05) was 0.045. The “RSA difference vs placebo, dominant arm” value (subjects with FSHD [1]; 0-1.25 scale, 95% CI 0.017, 0.118, p=0.01) was 0.067, the “Annualized rate of change in total RSA, non-dominant, annual percent change” value (subjects with FSHD [1]; weighted assessment, p=0.01) was 4.88% and the “Annualized rate of change in total RSA, dominant, annual percent change” value (subjects with FSHD [1]; weighted assessment, p=0.07) was 0.28%. For the same molecule, the “Annualized RWS increase from baseline, Q1 and Q3 (largest increases)” value (subjects with FSHD [2]) was 7-17%, the “Change in DUX4 activity, difference losmapimod vs placebo” value ([3]; 95% CI −1.04, 1.89, p=0.56) was 0.43 and the “Change from baseline in DUX4 activity” value ([3]; combined Wk16 or Wk36 muscle biopsies) was 0.83. For the same molecule, the “Reduction of pHSP27/HSP27total compared to placebo at Cmax” value (p38a/b MAPK pathway) was 48.0-70.2%, the “Plasma concentrations of losmapimod pre-dose” value ([4]; pre-dose) was 25.2 to 34.4 ng/mL and the Cmax at 4 h ([4]; human, plasma, po, 4 h post-dose, read-out: Plasma concentrations of losmapimod 4 h post-dose (approximate Cmax)) was 66.4 to 91.8 ng/mL.
